Structures are written as SMILES. “Also recorded” adds a separate entry of the source.

Consider 7 molecules from US20210261475A1, “UREA-BASED COMPOSITION COMPRISING ELEMENTAL SULPHUR AND METHOD FOR THE MANUFACTURE THEREOF” (YARA INTERNATIONAL ASA, priority 2018, published 2021).

Type in all cases: physicochemical
Data set [1] can be described thus: Volatilization measurements (ammonia release, 2 L diffusion kit, Draeger tube). Conditions: YaraVera Amidas product comprising 462 ppm nBTPT, treated with stabilizer (FIG. 1, Table 1). The source says: Through the lid, a […] tube is placed for the measurement of vol % ammonia. The […] tube turns from yellow to bleu/purple when ammonia is absorbed by the tube. The amount of vol % ammonia released can be followed in time. Experiment 1 defines the problem.

Data set [2] in a line: nBTPT stability on YaraVera Amidas (UAS) product during storage, HPLC analysis of nBTPT content. The protocol: For lab scale experiments, 1.2 kg of solid fertilizer material was added to a lab scale drum. […] A residence time of 10 minutes was applied and the rotating speed of the drum was consequently the same in each experiment. […] Before use, the moisture-repellent coating was preheated to 80° C. Larger scale experiments with amounts up to 40 kg of fertilizer material were performed in a concrete mixer. The samples were stored under several conditions, dependent on the type of samples: • Bagged at room temperature (18-25° C.) • Bagged at 40° C. • Open to air at room temperature (18-25° C.) […]

A further data set is described as follows: pH of MgSO4 grades.

Take `[O]=[Ca]` [CaO, calcium oxide]: the Ammonia release entry in data set [1] is on record as “producing ammonia”.

With `O=S(=O)([O-])[O-].[Ca+2]` [CaSO4], the Ammonia release result in data set [1] is recorded as “no ammonia release”.

With `[O]=[Mg]` [MgO, magnesium oxide, reference compound], in data set [1], the Ammonia release entry is recorded as “producing ammonia”. In data set [2] (YaraVera Amidas with 462 ppm nBTPT, MgSO4/MgO combinations (FIG. 4)), the “Stability of nBTPT (stabilizing effect)” value is “more effective than CaO”.

In the case of `O=S(=O)([O-])[O-].[Mg+2]` [MgSO4 99.5%], the pH in the data set “pH of MgSO4 grades” is 8.5.

Molecule `O=S(=O)([O-])[O-].[Mg+2]` [MgSO4 99.999%] displayed a pH in the data set “pH of MgSO4 grades” of 6.1.

Regarding `O=S(=O)([O-])[O-].[Mg+2]` [MgSO4, magnesium sulphate], the Ammonia release entry in data set [1] was “no ammonia release; also recorded: no ammonia is generated”. The “Stability of nBTPT (stabilizing effect)” value in data set [2] (UAS with 462 ppm nBTPT, open to air at room temperature 40 days (FIG. 2A) and in bags at 40° C. 8 days (FIG. 2B)) is recorded as “comparable with the effect of the prior art compound (CaO)”. In addition, the Stabilizing effect entry in data set [2] (more than 1 weight % magnesium sulphate in the composition) was “did not produce a proportionally better stabilizing effect”.

For the molecule `O=S(=O)([O-])[O-].[Na+].[Na+]` [Na2SO4, reference compound], the “Stability of nBTPT (stabilizing effect)” value in data set [2] (YaraVera Amidas with 462 ppm nBTPT, open plastic containers at room temperature for 21 days (FIG. 3)) is on record as “negative effect on the stability of nBTPT”.
